Assay results: patent publication US20240043386A1, “Modulators of the Cystic Fibrosis Transmembrane Conductance Regulator Protein and Methods of Use” (AbbVie Global Enterprises Ltd., priority 2021, published 2024)
Where two headings read alike, the source gives them in different places.

Assays:
F508del/F508del CFTR = target: T1, F508del/F508del CFTR (Homo sapiens, UniProt P13569, DEL508-508); test: Trans-Epithelial Current Clamp (TECC) assay using primary human bronchial epithelial cells; assay type: cell-based; conditions: for Emax (% Dual): maximum percent activity relative to positive control (co-corrector 0.15 μM + potentiator 0.45 μM = 100%), primary hBE cells F508del/F508del; for EC50: primary hBE cells homozygous F508del/F508del, test C2 corrector with co-corrector and potentiator, 18-24 hours at 37° C., equivalent CFTR current (IEQ)/AUC
T1 construct: cells isolated from CF patients with the homozygous mutation; endogenous in cells; host or cells: primary human bronchial epithelial (hBE) cells from CF patients homozygous for F508del
Method in brief: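 Readout is the equivalent CFTR current (IEQ, from offset-corrected VT and RT) plus AUC from forskolin peak to bumetanide addition, recorded on TECC-24 at 36.5° C. Beforehand, homozygous F508del hBE cultures received correctors with co-corrector and potentiator basolaterally for 18-24 h at 37° C.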

F508delCFTR = target: T2, F508delCFTR (Homo sapiens, UniProt P13569, DEL508-508); test: Cell Surface Expression-Horse Radish Peroxidase (CSE-HRP) assay in CFBE41o-F508delCFTR-HRP cells; assay type: cell-based; conditions: for EC50: CFBE41o-F508delCFTR-HRP cells, 18-24 hours at 33° C., luminescence; for Maximum % activity (without co-corrector) / Maximum % activity (with co-corrector): normalized to on-plate positive control corrector (2 μM)
T2 construct: expressed in transfected cells; host or cells: CFBE41o- human lung-derived epithelial cell line, doxycycline-inducible expression
Method in brief: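 Test compounds were tested alone or alongside a co-corrector (2 μM), 8-point 3-fold series from 20 or 30 μM, for 18–24 h at 33 °C on doxycycline-induced CFBE41o-F508delCFTR-HRP cells. After washing, luminol luminescence reported cell-surface HRP-tagged CFTR, normalized to the positive control (% activity). EC50 was fitted with a variable Hill slope sigmoid from triplicate plates; Z′ >0.5 required.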

[1] = with co-corrector (2 μM), read-out: EC50 (with co-corrector)
[2] = without co-corrector, read-out: EC50 (without co-corrector)

T2 sequence (P13569 with tags, fused parts or gaps DEL508-508): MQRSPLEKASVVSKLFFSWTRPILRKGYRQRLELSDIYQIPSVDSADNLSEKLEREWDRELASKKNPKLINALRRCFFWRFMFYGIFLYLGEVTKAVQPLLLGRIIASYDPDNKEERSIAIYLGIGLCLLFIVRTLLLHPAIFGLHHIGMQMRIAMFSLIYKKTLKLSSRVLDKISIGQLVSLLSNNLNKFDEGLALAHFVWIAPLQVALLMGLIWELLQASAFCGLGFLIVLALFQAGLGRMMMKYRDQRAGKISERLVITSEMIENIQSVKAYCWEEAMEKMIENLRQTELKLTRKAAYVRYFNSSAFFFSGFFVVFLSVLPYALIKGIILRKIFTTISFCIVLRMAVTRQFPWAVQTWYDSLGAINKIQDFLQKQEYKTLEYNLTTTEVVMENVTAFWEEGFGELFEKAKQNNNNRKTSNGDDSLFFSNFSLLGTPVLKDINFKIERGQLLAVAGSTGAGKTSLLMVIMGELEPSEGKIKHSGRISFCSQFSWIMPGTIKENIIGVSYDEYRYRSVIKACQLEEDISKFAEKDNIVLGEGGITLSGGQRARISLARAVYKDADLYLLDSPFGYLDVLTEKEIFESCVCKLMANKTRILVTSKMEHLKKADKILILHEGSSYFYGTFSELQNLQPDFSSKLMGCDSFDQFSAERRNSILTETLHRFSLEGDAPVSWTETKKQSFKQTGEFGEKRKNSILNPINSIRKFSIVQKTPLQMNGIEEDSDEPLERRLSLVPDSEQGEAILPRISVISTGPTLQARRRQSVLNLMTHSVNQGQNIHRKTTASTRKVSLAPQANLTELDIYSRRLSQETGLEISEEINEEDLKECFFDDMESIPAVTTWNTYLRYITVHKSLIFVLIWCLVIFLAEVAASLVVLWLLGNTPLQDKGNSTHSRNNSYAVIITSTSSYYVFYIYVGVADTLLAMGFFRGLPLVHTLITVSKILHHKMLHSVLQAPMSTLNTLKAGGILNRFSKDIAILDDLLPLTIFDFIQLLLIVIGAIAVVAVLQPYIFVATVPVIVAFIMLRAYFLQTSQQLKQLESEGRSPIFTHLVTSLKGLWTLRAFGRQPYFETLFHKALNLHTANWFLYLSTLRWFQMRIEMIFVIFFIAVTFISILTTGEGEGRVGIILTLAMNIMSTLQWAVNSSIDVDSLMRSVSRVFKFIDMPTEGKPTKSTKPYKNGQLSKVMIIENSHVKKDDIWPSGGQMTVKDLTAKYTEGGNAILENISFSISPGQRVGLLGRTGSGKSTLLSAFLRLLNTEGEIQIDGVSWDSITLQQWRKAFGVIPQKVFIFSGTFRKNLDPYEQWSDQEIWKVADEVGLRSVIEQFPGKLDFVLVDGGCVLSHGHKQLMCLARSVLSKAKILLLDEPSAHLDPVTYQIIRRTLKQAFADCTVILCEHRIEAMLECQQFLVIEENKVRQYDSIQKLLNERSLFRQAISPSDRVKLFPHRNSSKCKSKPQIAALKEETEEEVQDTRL
T1 sequence (P13569 with tags, fused parts or gaps DEL508-508): as above

Row | Emax (% Dual) (F508del/F508del CFTR) | EC50 (F508del/F508del CFTR) [nM] | EC50 (F508delCFTR; [1]) [nM] | EC50 (F508delCFTR; [2]) [nM] | Maximum % activity (without co-corrector) (F508delCFTR; without co-corrector, 2 µM) [%] | Maximum % activity (without co-corrector) (F508delCFTR; without co-corrector) [%] | Maximum % activity (with co-corrector) (F508delCFTR; with co-corrector (2 μM)) [%] | Compound
1 | 487 | 0.8 | 926 | 1450 | – | – | – | COc1ccc(C)cc1[C@]1(C(=O)NS(=O)(=O)c2cccc3nc(C)ccc23)C[C@@H]1c1ccc(C)cc1 (single isomer, unassigned) [Example 7]
2 | 308 | 8.4 | 393 | 328 | 784 | – | – | COc1ccc([C@@H]2C[C@]2(C(=O)NS(=O)(=O)c2cccc3nc(C)ccc23)c2cc(C)ccc2OC)cc1 (single isomer, unassigned) [Example 16]
3 | 296 | 0.66 | – | 2380 | – | – | – | COc1ccc([C@@H]2C[C@]2(C(=O)NS(=O)(=O)c2cccc3nc(C)ccc23)c2cc(C)ccc2OC)cc1 (single isomer, unassigned) [Example 17]
4 | 270 | 1.3 | – | 198 | – | – | – | COc1ccc(C)cc1[C@]1(C(=O)NS(=O)(=O)c2cccc3nc(C)ccc23)C[C@@H]1c1ccc(C(F)(F)F)cc1 (single isomer, unassigned) [Example 18]
5 | 215 | 9.6 | 588 | 1010 | – | – | – | COc1ccc(C)cc1[C@@]1(C(=O)NS(=O)(=O)c2cccc3nc(C)ccc23)C[C@H]1c1ccc(C(F)(F)F)cc1 (single isomer, unassigned) [Example 19]
6 | 250 | 1 | 203 | 244 | 716 | – | – | COc1ccc(C)cc1[C@@]1(C(=O)NS(=O)(=O)c2cccc3nc(C)ccc23)C[C@H]1c1cccc(F)c1 (single isomer, unassigned) [Example 20]
7 | 213 | 2 | 506 | 1090 | – | – | – | COc1ccc(C)cc1[C@@]1(C(=O)NS(=O)(=O)c2cccc3nc(C)ccc23)C[C@H]1c1cccc(F)c1 (single isomer, unassigned) [Example 21]
8 | 294 | 6.2 | 259 | 327 | – | – | – | COc1ccc(C)cc1[C@]1(C(=O)NS(=O)(=O)c2cccc3nc(C)ccc23)C[C@@H]1c1cccc(C(F)(F)F)c1 (single isomer, unassigned) [Example 23]
9 | 286 | 2 | 201 | 583 | – | – | – | COc1ccc(C)cc1[C@@]1(C(=O)NS(=O)(=O)c2cccc3nc(C)ccc23)C[C@H]1c1cccc(C(F)(F)F)c1 (single isomer, unassigned) [Example 24]
10 | 305 | 4.3 | 388 | 1010 | – | – | – | COc1ccc(C)cc1[C@]1(C(=O)NS(=O)(=O)c2cccc3nc(C)ccc23)C[C@@H]1c1ccccc1F (single isomer, unassigned) [Example 25]
11 | 293 | 2.8 | 337 | 368 | – | 515 | – | COc1ccc(C)cc1[C@@]1(C(=O)NS(=O)(=O)c2cccc3nc(C)ccc23)C[C@H]1c1ccccc1F (single isomer, unassigned) [Example 26]
12 | 275 | 15.7 | 429 | 405 | – | 465 | – | COc1cccc([C@@H]2C[C@]2(C(=O)NS(=O)(=O)c2cccc3nc(C)ccc23)c2cc(C)ccc2OC)c1 (single isomer, unassigned) [Example 27]
13 | 304 | 2.6 | 417 | 951 | – | – | – | COc1cccc([C@H]2C[C@@]2(C(=O)NS(=O)(=O)c2cccc3nc(C)ccc23)c2cc(C)ccc2OC)c1 (single isomer, unassigned) [Example 28]
14 | 313 | 46.6 | 260 | 263 | – | 589 | – | COc1ccc(C)cc1[C@]1(C(=O)NS(=O)(=O)c2cccc3nc(C)ccc23)C[C@@H]1c1ccccc1C(F)(F)F (single isomer, unassigned) [Example 30]
15 | 307 | 6.2 | 163 | 239 | – | 776 | – | COc1ccc(C)cc1[C@@]1(C(=O)NS(=O)(=O)c2cccc3nc(C)ccc23)C[C@H]1c1ccccc1C(F)(F)F (single isomer, unassigned) [Example 31]
16 | 152 | 42 | 3680 | 7260 | – | 113 | 460 | COc1ncc([C@@H]2C[C@]2(C(=O)NS(=O)(=O)c2cccc3nc(C)ccc23)c2cc(C)ccc2OC)cn1 (single isomer, unassigned) [Example 37]
17 | 202 | 219 | 1810 | 3020 | – | 419 | 995 | COc1ncc([C@H]2C[C@@]2(C(=O)NS(=O)(=O)c2cccc3nc(C)ccc23)c2cc(C)ccc2OC)cn1 (single isomer, unassigned) [Example 38]
18 | 179 | > 300 | 4620 | 6150 | – | 128 | 427 | COc1ccc(C)cc1[C@@]1(C(=O)NS(=O)(=O)c2cccc3nc(C)ccc23)C[C@H]1c1cncc(C)n1 (single isomer, unassigned) [Example 45]
19 | 364 | 30.1 | 1520 | 2350 | – | 783 | – | COc1ccc(C)cc1[C@]1(C(=O)NS(=O)(=O)c2cccc3nc(C)ccc23)C[C@@H]1c1cncc(C)n1 (single isomer, unassigned) [Example 46]
20 | 247 | 85.2 | 1280 | 2210 | – | 322 | 775 | COc1cnc([C@@H]2C[C@]2(C(=O)NS(=O)(=O)c2cccc3nc(C)ccc23)c2cc(C)ccc2OC)cn1 (single isomer, unassigned) [Example 47]
21 | 401 | 47.1 | 1080 | 1780 | – | 790 | – | COc1cnc([C@H]2C[C@@]2(C(=O)NS(=O)(=O)c2cccc3nc(C)ccc23)c2cc(C)ccc2OC)cn1 (single isomer, unassigned) [Example 48]
22 | 359 | 5.2 | 954 | 2340 | – | 951 | – | COc1ccc(C)cc1[C@]1(C(=O)NS(=O)(=O)c2cccc3nc(C)ccc23)C[C@@H]1c1cccnc1OC (single isomer, unassigned) [Example 50]
23 | 135 | > 300 | 4380 | 5440 | – | 108 | 406 | COc1cncc([C@@H]2C[C@]2(C(=O)NS(=O)(=O)c2cccc3nc(C)ccc23)c2cc(C)ccc2OC)c1 (single isomer, unassigned) [Example 51]
24 | 283 | 26.6 | 2140 | 3320 | – | 608 | – | COc1cncc([C@H]2C[C@@]2(C(=O)NS(=O)(=O)c2cccc3nc(C)ccc23)c2cc(C)ccc2OC)c1 (single isomer, unassigned) [Example 52]
25 | 169 | > 300 | 2610 | 3980 | – | 229 | 625 | COc1ccc(C)cc1[C@@]1(C(=O)NS(=O)(=O)c2cccc3nc(C)ccc23)C[C@H]1c1cncc(F)c1 (single isomer, unassigned) [Example 53]
26 | 355 | 50.8 | 2000 | 2930 | – | 890 | – | COc1ccc(C)cc1[C@]1(C(=O)NS(=O)(=O)c2cccc3nc(C)ccc23)C[C@@H]1c1cncc(F)c1 (single isomer, unassigned) [Example 54]
27 | 315 | 97 | 890 | 1740 | – | 399 | 847 | COc1ccc(C)cc1[C@@]1(C(=O)NS(=O)(=O)c2cccc3nc(C)ccc23)C[C@H]1c1cnc(C(C)C)cn1 (single isomer, unassigned) [Example 63]
